Patent publication US11964943B2, “3,5-diarylidenyl-n-substituted-piperid-4-one-derived inhibitors of Stat3 pathway activity and uses thereof” (priority 2017, dated 2024)
≈ marks a conversion by molar mass, not a printed value. Like-named read-outs stand apart in the source and are kept apart here.

Tests used:
B16 (melanoma) cells = test: MTT cytotoxicity assay, B16 cells
L1210 (lymphoma) cells = test: MTT cytotoxicity assay, L1210 cells
[1] = test system: A2780-cisplatin resistant spheroids; test: CellTiter-Glo 3D cell viability assay, A2780-cisplatin resistant spheroids; type: cell-based; conditions: 96 h exposure, 3D CellTiter-Glo
Method: For cell spheroid formation, HCT116-oxaliplatin resistant cells, A2780-cisplatin resistant cells, and HT1080 cells were seeded in Corning® Spheroid opaque-walled 96 well Microplates (ultra-low attachment; Nuclon™ Sphera™, Thermofisher) at densities of 2000 cells/well in 100 μl of cell solution and allowed to grow for 4 days, before any manipulation.
At the end of drug incubation, both the plates and the CellTitre-Glo® reagent (previously thawn overnight in the fridge) were equilibrated at room temperature for at least 30 min. Subsequently, 100 μl of cell solution were carefully removed from each well, without disrupting the spheroid and equal volume of CellTitre-Glo® reagent was added. Cell lysis was performed by vigorously shaking the plate for 5 min. To stabilize the luminescent signal, the plate was incubated in the dark at RT for another 30 min before luminescence was recorded on a plate reader. The cell viability of treated samples was normalised to the untreated controls.
The cytotoxicity studies in spheroids were conducted using the CellTiter-Glo® 3D Cell viability assay (Promega) following the instructions of the manufacturer.

[2] = Aqueous solubility (MultiScreen Solubility Filter Plate, shake-flask based); conditions: aqueous buffer with 5% DMSO, pH 7.4, aqueous with cosolvent or surfactant or cyclodextrin, kinetic from dmso stock
Method: Aqueous solubility of Compounds of the Invention was measured with a modified version of the MultiScreen Solubility Filter Plate protocol (Millipore). This assay was based on the shake-flask equilibrium method and utilizes UV-Vis spectroscopy to quantify the unknown samples. The assay was conducted at room temperature at pH 7.4. […] Compound of the Invention was dissolved in DMSO, and the final DMSO concentration was 5% (v/v). Each sample was analyzed by UV-Vis spectroscopy at 10 nm increments from 260-600 nm to determine the optimal wavelength for detection and construct standard curves. […] A 4:1 mixture of supernatant to acetonitrile was added to a 96-well acrylic plate and analyzed by UV-Vis spectroscopy.
Aqueous solubility was measured with a modified version of the MultiScreen Solubility Filter Plate protocol (Millipore). This assay is based on the shake-flask equilibrium method and utilizes UV-Vis spectroscopy to quantify the unknown samples. The assay is conducted at room temperature at pH 7.4. […] Each compound was dissolved in DMSO, and the final DMSO concentration was 5% (v/v). Each sample was analyzed by UV-Vis spectroscopy at 10 nm increments from 260-600 nm to determine the optimal wavelength for detection and construct standard curves. […] A 4:1 mixture of supernatant to acetonitrile was added to a 96-well acrylic plate and analyzed by UV-Vis spectroscopy.

[3] = test system: MDA-MB-435 cancer cell line; test: SRB antiproliferative assay, MDA-MB-435; type: cell-based, human; conditions: Homo sapiens, MDA-MB-435, 48 h exposure
[4] = Mus musculus, B16, 72 h, read-out: IC50 (μM) B16, 72 h exposure, MTT, mean of three independent experiments
[5] = read-out: IC50 (μM) B16, 72 h exposure, MTT, mean of three independent experiments
[6] = read-out: IC50 (μM) L1210, 72 h exposure, MTT, mean of three independent experiments
[7] = Mus musculus, L1210, 72 h, read-out: IC50 (μM) L1210, 72 h exposure, MTT, mean of three independent experiments

SMILES | IC50 (B16 (melanoma) cells; [4]) [µM] | IC50 (L1210 (lymphoma) cells; [7]) [µM] | also measured
COc1cc(/C=C2\CN(C)C/C(=C\c3ccc(O)c(OC)c3)C2=O)ccc1O [IB-6] | 1.3 to 2.1 |  | IC50 (B16 (melanoma) cells; [5]): 1.8 ± 0.3 µM; IC50 (L1210 (lymphoma) cells; [6]): 1.9 ± 0.4 µM
O=C1/C(=C/c2ccc([N+](=O)[O-])cc2)CNC/C1=C\c1ccc([N+](=O)[O-])cc1 [IA-3] | 15 | 0.3 | 
COc1cc(/C=C2\CN(c3ccccc3)C/C(=C\c3ccc(O)c(OC)c3)C2=O)ccc1O [IE-6, 3,5-Di(4-hydroxy-3-methoxybenzylidene)-1-phenylpiperidin-4-one] | 2.9 ± 0.4 | 2.8 ± 0.4 | melting point: 139 to 143 °C
Cc1ccc(/C=C2\CN(C(C)C)C/C(=C\c3ccc(C)cc3)C2=O)cc1 [IC-2] | 4 ± 2 | 2.5 ± 0.7 | 
COc1ccc(/C=C2\CNC/C(=C\c3ccc(OC)c(O)c3)C2=O)cc1O [IA-5] | 3 ± 1 | 0.9 ± 0.3 | 
COc1cc(/C=C2\CNC/C(=C\c3ccc(O)c(OC)c3)C2=O)ccc1O [IA-6] | 1.3 ± 0.6 | 0.9 ± 0.4 | 
COc1cc(/C=C/C(=O)CC(=O)/C=C/c2ccc(O)c(OC)c2)ccc1O [Curcumin] |  |  | IC50 [1]: 37000 ± 9400 nM
CN1C/C(=C\c2ccc([N+](=O)[O-])cc2)C(=O)/C(=C/c2ccc([N+](=O)[O-])cc2)C1 [IB-3] |  | 1.3 | IC50 (B16 (melanoma) cells; [5]): 41 ± 2 µM; IC50 (B16 (melanoma) cells; read-out: IC50 (μM) B16, 72 h exposure, MTT, mean of three independent experiments, listed as 5c): 4 µM
COc1cc(/C=C2\CN(Cc3ccccc3)C/C(=C\c3ccc(O)c(OC)c3)C2=O)ccc1O [ID-6] | 2 ± 0.5 | 2.8 ± 0.4 | 
O=C1/C(=C/c2ccc([N+](=O)[O-])cc2)CN(c2ccccc2)C/C1=C\c1ccc([N+](=O)[O-])cc1 [IE-3, 3,5-Di(4-nitrobenzylidene)-1-phenylpiperidin-4-one] |  |  | IC50 (B16 (melanoma) cells; [5]): 65 ± 7 µM; melting point: 184 to 188 °C; IC50 (L1210 (lymphoma) cells; [6]): 65 ± 7 µM
COc1ccc(/C=C2\CNC/C(=C\c3ccc(OC)c(OC)c3)C2=O)cc1OC [IA-7] | 2.3 ± 0.5 | 0.6 ± 0.2 | 
COc1ccc(/C=C2\CN(Cc3ccccc3)C/C(=C\c3ccc(OC)c(OC)c3)C2=O)cc1OC [ID-7] | 2 ± 0.4 | 3.3 ± 0.1 | IC50 (B16 (melanoma) cells; read-out: IC50 (μM) B16, 72 h exposure, MTT, mean of three independent experiments, listed as 7g): 2.5 ± 0.4 µM
COc1cc(/C=C2\CN(C)C/C(=C\c3cc(OC)c(OC)c(OC)c3)C2=O)cc(OC)c1OC [IB-8] | 0.31 | 0.37 | solubility at 6 h [2]: 160 ± 30 µM (≈ 75.1 µg/mL); IC50 (B16 (melanoma) cells; read-out: IC50 (μM) B16, 72 h exposure, MTT, mean of three independent experiments, listed as 5 h): ~0.3 µM; IC50 (L1210 (lymphoma) cells; read-out: IC50 (μM) L1210, 72 h exposure, MTT, mean of three independent experiments, listed as 5 h): ~0.3 µM; IC50 [3]: 0.19 µM
Cc1ccc(/C=C2\CN(c3ccccc3)C/C(=C\c3ccc(C)cc3)C2=O)cc1 [IE-2, 3,5-Di(4-methylbenzylidene)-1-phenylpiperidin-4-one] | > 100 | > 100 | melting point: 173 to 176 °C
COc1ccc(/C=C2\CN(C(C)C)C/C(=C\c3ccc(OC)c(O)c3)C2=O)cc1O [IC-5, 3,5-Di(3-hydroxy-4-methoxylbenzyliden)-1-isopropylpiperidin-4-one] | 1.1 | 0.4 | melting point: 165 to 168 °C
COc1ccc(/C=C2\CN(C)C/C(=C\c3ccc(OC)cc3)C2=O)cc1 [IB-4] | 23 | 62 | 
COc1ccc(/C=C2\CN(C)C/C(=C\c3ccc(OC)c(OC)c3)C2=O)cc1OC [IB-7] | 1.3 to 2.1 | 0.8 to 1.9 | IC50 (B16 (melanoma) cells; [5]): 1.3 ± 0.1 µM; IC50 (L1210 (lymphoma) cells; [6]): 1 ± 0.6 µM
COc1ccc(/C=C2\CN(C)C/C(=C\c3ccc(OC)c(O)c3)C2=O)cc1O [IB-5] | 1.3 to 2.1 | 0.8 to 1.9 | IC50 (B16 (melanoma) cells; [5]): 2.1 ± 0.1 µM; IC50 (L1210 (lymphoma) cells; [6]): 0.8 ± 0.4 µM
